The text below walks through data of patent publication US20260226056A1, “SUBSTITUTED 1H-PYRAZOLE-4-CARBOXAMIDES AS SARM1 INHIBITORS” (DISARM THERAPEUTICS, INC., priority 2023, published 2026).

The assay has as its target T1, hSARM1 (Homo sapiens, UniProt Q6SZW1).
T1 construct: This assay makes use of full length SARM1, which encompasses the ARM, SAM and TIR domains; made in house; host or cells: NRK1-HEK293T cells (transient transfection; cleared lysate used as enzyme)
T1 sequence (Q6SZW1 28-724): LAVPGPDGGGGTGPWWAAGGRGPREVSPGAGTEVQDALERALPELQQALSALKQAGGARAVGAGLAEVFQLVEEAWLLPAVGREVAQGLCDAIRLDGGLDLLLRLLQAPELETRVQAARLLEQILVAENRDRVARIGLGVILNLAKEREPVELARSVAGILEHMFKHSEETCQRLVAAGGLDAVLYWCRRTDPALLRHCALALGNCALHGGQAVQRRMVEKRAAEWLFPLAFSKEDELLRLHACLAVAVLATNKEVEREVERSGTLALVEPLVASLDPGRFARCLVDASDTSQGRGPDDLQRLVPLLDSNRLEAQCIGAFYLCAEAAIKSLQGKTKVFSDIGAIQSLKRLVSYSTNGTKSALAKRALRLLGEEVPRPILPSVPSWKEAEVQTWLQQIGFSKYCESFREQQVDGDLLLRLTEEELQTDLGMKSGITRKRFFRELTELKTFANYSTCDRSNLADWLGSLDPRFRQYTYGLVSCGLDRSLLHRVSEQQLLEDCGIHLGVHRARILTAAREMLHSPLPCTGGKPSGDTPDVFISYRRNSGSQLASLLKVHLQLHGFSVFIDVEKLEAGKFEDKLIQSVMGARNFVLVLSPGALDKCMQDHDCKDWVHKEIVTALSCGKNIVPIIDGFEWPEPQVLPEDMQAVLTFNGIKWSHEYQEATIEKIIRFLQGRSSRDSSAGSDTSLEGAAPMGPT
Nature of the assay: ARM-SAM-TIR SARM1 IC50 Assay (NADase activity, NAD+ cleavage, RapidFire MS). The assay is classed as biochemical. To be noted: ARM-SAM-TIR lysate 5 μg/mL, 2 hrs. pre-incubation with compound, 5 μM NAD+, 2 hrs. incubation. How it is done:
This describes an assay of ARM-SAM-TIR NADase activity and use of this assay to measure the efficacy of compounds of the present invention to block SARM1 mediated NAD+ cleavage. This assay was optimized in such a way as to characterize the efficacy of the compounds of the present invention to inhibit SARM1 activity and to calculate an IC50 value for each compound. This assay makes use of full length SARM1, which encompasses the ARM, SAM and TIR domains.
NRK1-HEK293T cells were seeded onto 150 cm^2 plates at 20×10^6 cells per plate. The next day, the cells were transfected with 15 μg ARM-SAM-TIR expression plasmid (SEQ ID NO: 1 as disclosed in WO 2019/236879, Pages 77-81; Paragraph) [0310]).
The cultures were supplemented with 1 mM NR at time of transfection to minimize toxicity from ARM-SAM-TIR overexpression. Forty-eight hours after transfection, cells were harvested, pelleted by centrifugation at 1,000 rpm (Sorvall ST 16R centrifuge, Thermo Fisher), and washed once with cold PBS (0.01 M phosphate buffered saline NaCl 0.138 M; KCl 0.0027 M; pH 7.4). The cells were resuspended in PBS with protease inhibitors (Complete™ protease inhibitor cocktail, Roche product #11873580001) and cell lysates were prepared by sonication (Branson Sonifer 450, output=3, 20 episodes of stroke). The lysates were centrifuged (12,000×g for 10 min at 4° C.) to remove cell debris and the supernatants (containing ARM-SAM-TIR protein) were stored at −80° C. for later use in the in vitro ARM-SAM-TIR NADase assay (see below). Protein concentration was determined by the Bicinchoninic (BCA) method and used to normalize lysate concentrations.
The enzymatic assay was performed in a 384-well polypropylene plate in Dulbecco's PBS buffer in a final assay volume of 20 μL. ARM-SAM-TIR lysate with a final concentration of 5 μg/mL was pre-incubated with the respective compound at 1% DMSO final assay concentration over 2 hrs. at room temperature. The reaction was initiated by addition of 5 μM final assay concentration of NAD+ as substrate. After a 2 hrs. ambient temperature incubation, the reaction was terminated with 40 μL of stop solution of 7.5% trichloroacetic acid in acetonitrile. The NAD+ and ADPR concentrations were analyzed by a RapidFire High Throughput Mass Spectrometry System (Agilent Technologies, Santa Clara, CA) using an API4000 triple quadrupole mass spectrometer (AB Sciex Framingham, MA).
Compounds having an activity designated as “A” provided an IC50<50 nM; compounds having an activity designated as “B” provided an IC50 51-100 nM; compounds having an activity designated as “C” provided an IC50 101-500 nM; compounds having an activity designated as “D” provided an IC50 501-1000 nM; compounds having an activity designated as “E” provided an IC50>1000 nM.
For the molecule `O=C(CCc1ccc(Cl)nc1)Nc1[nH]nc2c1c(=O)[nH]c1cnccc12` [Example 1, 3-(6-Chloropyridin-3-yl)-N-(4-oxo-4,5-dihydro-2H-pyrazolo[4,3-c][1,7]naphthyridin-3-yl)propanamide], the IC50 fell in the range of 101 to 500 nM.

On to `O=C(CCc1ccc(F)nc1)Nc1[nH]nc2c1c(=O)[nH]c1cnccc12` [Example 2, 3-(6-Fluoropyridin-3-y1)-N-(4-oxo-4,5-dihydro-2H-pyrazolo[4,3-c][1,7]naphthyridin-3-yl)propanamide], for which the concentration for half-maximal inhibition (IC50) lay within 101 to 500 nM.

With `O=C(CCc1ccc(Cl)cc1)Nc1[nH]nc2c1c(=O)[nH]c1cnccc12` [Example 3, 3-(4-Chlorophenyl)-N-(4-oxo-4,5-dihydro-2H-pyrazolo[4,3-c][1,7]naphthyridin-3-yl)propanamide], the IC50 is less than 50 nM.

On to `O=C(CCc1ccc(Cl)c(F)c1)Nc1[nH]nc2c1c(=O)[nH]c1cnccc12` [Example 4, 3-(4-Chloro-3-fluorophenyl)-N-(4-oxo-4,5-dihydro-2H-pyrazolo[4,3-c][1,7]naphthyridin-3-yl)propanamide], for which the IC50 was less than 50 nM.

Consider `O=C(CCc1cnc(Cl)c(F)c1)Nc1[nH]nc2c1c(=O)[nH]c1cnccc12` [Example 5, 3-(6-Chloro-5-fluoro-3-pyridyl)-N-(4-oxo-2,5-dihydropyrazolo[4,3-c][1,7]naphthyridin-3-y1)propanamide], for which the IC50 fell in the range of 51 to 100 nM.

With `O=C(CCc1ccc(F)c(F)c1)Nc1[nH]nc2c1c(=O)[nH]c1cnccc12` [Example 6, 3-(3,4-Difluorophenyl)-N-(4-oxo-4,5-dihydro-2H-pyrazolo[4,3-c][1,7]naphthyridin-3-yl)propanamide], the IC50 is less than 50 nM.

Consider `NC(=O)c1c(-c2ccncc2)n[nH]c1NC(=O)CCc1ccc(Cl)c(Cl)c1` [Example 7, 5-(3-(3,4-Dichlorophenyl)propanamido)-3-(pyridin-4-yl)-1H-pyrazole-4-carboxamide], for which the IC50 was 51 to 100 nM.

On to `NC(=O)c1c(-c2ccncc2)n[nH]c1NC(=O)CCc1ccc(F)c(F)c1` [Example 8, 5-(3-(3,4-Difluorophenyl)propanamido)-3-(pyridin-4-y1)-1H-pyrazole-4-carboxamide], for which the IC50 was 101 to 500 nM.

`NC(=O)c1c(-c2ccncc2)n[nH]c1NC(=O)CCc1ccc(Cl)nc1` [Example 9, 5-(3-(6-Chloropyridin-3-yl)propanamido)-3-(pyridin-4-y1)-1H-pyrazole-4-carboxamide]: the IC50 lay within 101 to 500 nM.

On to `NC(=O)c1c(-c2ccncc2)n[nH]c1NC(=O)CCc1ccc(F)cc1` [Example 10, 5-(3-(4-Fluorophenyl)propanamido)-3-(pyridin-4-yl)-1H-pyrazole-4-carboxamide], for which the half-maximal inhibitory concentration (IC50) is 101 to 500 nM.

Take `NC(=O)c1c(-c2ccncc2)n[nH]c1NC(=O)CCc1cc(F)cc(F)c1` [Example 11, 5-(3-(3,5-Difluorophenyl)propanamido)-3-(pyridin-4-y1)-1H-pyrazole-4-carboxamide-]: the IC50 was in the range of 501 to 1000 nM.

Take `NC(=O)c1c(-c2ccncc2)n[nH]c1NC(=O)CCc1cnc(Cl)c(F)c1` [Example 12, 5-(3-(6-Chloro-5-fluoropyridin-3-yl)propanamido)-3-(pyridin-4-yl)-1H-pyrazole-4-carboxamide]: the IC50 lay in the range of 101 to 500 nM.

`NC(=O)c1c(-c2ccncc2)n[nH]c1NC(=O)CCc1ccc(Cl)cc1` [Example 13, 5-(3-(4-Chlorophenyl)propanamido)-3-(pyridin-4-yl)-1H-pyrazole-4-carboxamide]: the IC50 was less than 50 nM.

`NC(=O)c1c(-c2ccncc2)n[nH]c1NC(=O)CCc1ccc(Cl)c(F)c1` [Example 14, 5-(3-(4-Chloro-3-fluorophenyl)propanamido)-3-(pyridin-4-yl)-1H-pyrazole-4-carboxamide]: the IC50 was less than 50 nM.

Consider `NC(=O)c1c(-c2ccncc2)n[nH]c1NC(=O)CCc1ccc(Cl)s1` [Example 15, 5-(3-(5-Chlorothiophen-2-yl)propanamido)-3-(pyridin-4-y1)-1H-pyrazole-4-carboxamide], for which the IC50 fell in the range of 101 to 500 nM.

As to `Cc1cnncc1-c1n[nH]c(NC(=O)CCc2ccc(F)nc2)c1C(N)=O` [Example 16, 5-(3-(6-Fluoropyridin-3-yl)propanamido)-3-(5-methylpyridazin-4-yl)-1H-pyrazole-4-carboxamide], the IC50 was greater than 1000 nM.

Turning to `Cc1cnncc1-c1n[nH]c(NC(=O)CCc2ccc(Cl)c(F)c2)c1C(N)=O` [Example 17, 5-(3-(4-Chloro-3-fluorophenyl)propanamido)-3-(5-methylpyridazin-4-y1)-1H-pyrazole-4-carboxamide], the IC50 fell in the range of 501 to 1000 nM.

Consider `CNC(=O)c1c(-c2ccnnc2)n[nH]c1NC(=O)CCc1ccc(F)nc1` [Example 18, 5-(3-(6-Fluoropyridin-3-yl)propanamido)-N-methyl-3-(pyridazin-4-y1)-1H-pyrazole-4-carboxamide], for which the IC50 is greater than 1000 nM.

Take `NC(=O)c1c(-c2ccnnc2)n[nH]c1NC(=O)CCc1ccc(F)nc1` [Example 19, 5-(3-(6-Fluoropyridin-3-yl)propanamido)-3-(pyridazin-4-yl)-1H-pyrazole-4-carboxamide]: the IC50 was greater than 1000 nM.

With `NC(=O)c1c(-c2ccnnc2)n[nH]c1NC(=O)CCc1cnc(Cl)c(F)c1` [Example 20, 5-(3-(6-Chloro-5-fluoropyridin-3-yl)propanamido)-3-(pyridazin-4-y1)-1H-pyrazole-4-carboxamide], the IC50 was 101 to 500 nM.

Consider `NC(=O)c1c(-c2ccnnc2)n[nH]c1NC(=O)CCc1ccc(Cl)c(F)c1` [Example 21, 5-(3-(4-Chloro-3-fluorophenyl)propanamido)-3-(pyridazin-4-yl)-1H-pyrazole-4-carboxamide], for which the IC50 lay in the range of 51 to 100 nM.

Regarding `NC(=O)c1c(-c2ccncc2)n[nH]c1NC(=O)CCc1ccc(F)nc1` [Example 22, 5-(3-(6-Fluoropyridin-3-yl)propanamido)-3-(pyridin-4-yl)-1H-pyrazole-4-carboxamide], the half-maximal inhibitory concentration (IC50) lay in the range of 501 to 1000 nM.

Take `NC(=O)c1c(-c2ccncc2)n[nH]c1NC(=O)CCc1ccc(C(F)(F)F)cc1` [Example 23, 3-(Pyridin-4-y1)-5-(3-(4-(trifluoromethyl)phenyl)propanamido)-1H-pyrazole-4-carboxamide]: the IC50 is 101 to 500 nM.

As for `CNC(=O)c1c(-c2ccncc2)n[nH]c1NC(=O)CCc1ccc(Cl)cc1` [Example 24, 3-(3-(4-chlorophenyl)propanamido)-N-methyl-5-(pyridin-4-yl)-1H-pyrazole-4-carboxamide], the IC50 was in the range of 101 to 500 nM.

Take `O=C1NCN(C(=O)CCc2ccc(Cl)cc2)c2[nH]nc(-c3ccncc3)c21` [Example 25, 7-(3-(4-Chlorophenyl)propanoyl)-3-(pyridin-4-yl)-1,5,6,7-tetrahydro-4H-pyrazolo[3,4-d]pyrimidin-4-one]: the IC50 fell in the range of 101 to 500 nM.

As for `O=C1NCN(C(=O)CCc2ccc(Cl)c(F)c2)c2[nH]nc(-c3ccncc3)c21` [Example 26, 7-(3-(4-Chloro-3-fluorophenyl)propanoy1)-3-(pyridin-4-y1)-1,5,6,7-tetrahydro-4H-pyrazolo[3,4-d]pyrimidin-4-one], the 50% inhibitory concentration (IC50) lay in the range of 101 to 500 nM.
